Laboratory results as given in patent publication US20240423973A1, “COMPOUNDS, PHARMACEUTICAL COMPOSITIONS, AND METHODS FOR THE TREATMENT, PREVENTION, OR MANAGEMENT OF HYPERPROLIFERATIVE DISORDERS” (VINCERX PHARMA GMBH, priority 2021, published 2024).
Where a name gives a salt, the structure may show the parent alone.

Assays:
Test in all cases: Cytotoxicity in vitro in the presence and absence of elastase (MTT assay)
SUM149 = type: cell-based; conditions: SUM149 cells, 72 h
Description: (§1) Cultivation of cells was performed according to standard procedures with the media recommended by the provider. The cells, in a total volume of 100 μL, were seeded in a 96-well plate with a white bottom (#3610). After a 24 h incubation period at 37° C. and 5% CO2, the medium was exchanged by adding 90 μL fresh medium. The treatment started by adding the test compound in 10 μL of culture medium to the cells in triplicates. Concentrations ranging from 10^−5 M to 10^−13 M were chosen. Two identically treated sets of samples were prepared. One set was treated with the test compound alone, whereas to the second set the compound and 10 nM elastase was added followed by a 72 h incubation period at 37° C. and 5% CO2. The proliferation was detected using the MTT assay (ATCC). At the end of the incubation period the MTT reagent was added to all samples for 4h. Lysis of the cells followed by addition of the detergent was done overnight. The formed dye was detected at 570 nm. The proliferation of untreated but otherwise identically handled cells was define as the […].

NCI H292 = type: cell-based, human; conditions: NCI H292 cells, 72 h
Description: as §1

786-O = type: cell-based, human; conditions: 786-O cells, 72 h
Description: as §1

HT29 = type: cell-based, human; conditions: HT29 cells, 72 h
Description: as §1

| SMILES | IC50 (SUM149; compound alone (no elastase)) | IC50 (SUM149; with 10 nM elastase) | IC50 (NCI H292; compound alone (no elastase)) | IC50 (NCI H292; with 10 nM elastase) | IC50 (786-O; compound alone (no elastase)) | IC50 (786-O; with 10 nM elastase) | IC50 (HT29; compound alone (no elastase)) | IC50 (HT29; with 10 nM elastase) |
| --- | --- | --- | --- | --- | --- | --- | --- | --- |
| CCCNC(=O)Nc1cccc(S(=O)(=O)Nc2cccc([C@H](CC(=O)O)NC(=O)Nc3ccc(NC(=O)NCCN(C)CCN(C)CCN(C)CC(=O)NCCCC[C@H](NC(=O)CN(C)CCN(C)CCN(C)CCNC(=O)Nc4ccc(NC(=O)N[C@@H](CC(=O)O)c5cccc(NS(=O)(=O)c6cccc(NC(=O)NCCC)c6)c5)cc4)C(=O)NCCN(C)CCN(C)CCN(C)CC(=O)N[C@@H](CC(N)=O)C(=O)N4CCC[C@H]4C(=O)N[C@H](C(=O)O[C@]4(CC)C(=O)OCc5c4cc4n(c5=O)Cc5c-4nc4ccccc4c5CC)C(C)C)cc3)c2)c1 [Compound A8] | 1.1 to 10 nM | 0.1 to 1 nM | 1.1 to 10 nM | 0.1 to 1 nM | 10 to 100 nM | 0.1 to 1 nM | 10 to 100 nM | 0.1 to 1 nM |
| CCCNC(=O)Nc1cccc(S(=O)(=O)Nc2cccc([C@@H](CC(=O)O)NC(=O)Nc3ccc(NC(=O)NCCCCN(C)CCN(C)CCN(C)CC(=O)N[C@@H](CCCCNC(=O)CN(C)CCN(C)CCN(C)CCNC(=O)Nc4ccc(NC(=O)N[C@H](CC(=O)O)c5cccc(NS(=O)(=O)c6cccc(NC(=O)NCCC)c6)c5)cc4)C(=O)NCCN(C)CCN(C)CCN(C)CC(=O)N[C@@H](CC(N)=O)C(=O)N4CCC[C@H]4C(=O)N[C@H](C(=O)O[C@]4(CC)C(=O)OCc5c4cc4n(c5=O)Cc5c-4nc4ccccc4c5CC)C(C)C)cc3)c2)c1 [Compound A7] | 1.1 to 10 nM | 0.1 to 1 nM | 1.1 to 10 nM | 0.1 to 1 nM | 10 to 100 nM | 0.1 to 1 nM | 10 to 100 nM | 0.1 to 1 nM |
| CCCNC(=O)Nc1cccc(S(=O)(=O)Nc2cccc([C@@H](CC(=O)O)NC(=O)Nc3ccc(NC(=O)NCCN(C)CCN(C)CCN(C)CC(=O)NCCN(C)CCN(C)CCN(C)CC(=O)N[C@@H](CC(N)=O)C(=O)N4CCC[C@H]4C(=O)N[C@H](C(=O)O[C@]4(CC)C(=O)OCc5c4cc4n(c5=O)Cc5c-4nc4ccccc4c5CC)C(C)C)cc3)c2)c1 [Compound D1] | 10 to 100 nM | 0.1 to 1 nM | 10 to 100 nM | 1.1 to 10 nM | 10 to 100 nM | 1.1 to 10 nM | 10 to 100 nM | 1.1 to 10 nM |
| CCCNC(=O)Cc1cccc(S(=O)(=O)Nc2cccc([C@H](CC(=O)O)NC(=O)Nc3ccc(NC(=O)NCCOCCOCCOCCC(=O)N[C@@H](CCCCNC(=O)CCOCCOCCOCCNC(=O)Nc4ccc(NC(=O)N[C@@H](CC(=O)O)c5cccc(NS(=O)(=O)c6cccc(NC(=O)NCCC)c6)c5)cc4)C(=O)NCCN(C)CCN(C)CCN(C)CC(=O)N[C@@H](CC(N)=O)C(=O)N4CCC[C@H]4C(=O)N[C@H](C(=O)O[C@]4(CC)C(=O)OCc5c4cc4n(c5=O)Cc5c-4nc4ccccc4c5CC)C(C)C)cc3)c2)c1 [Compound A6] | 1.1 to 10 nM | 0.01 to 0.1 nM | 1.1 to 10 nM | 0.1 to 1 nM | 10 to 100 nM | 0.1 to 1 nM | 10 to 100 nM | 0.1 to 1 nM |
| CCCNC(=O)Nc1cccc(S(=O)(=O)Nc2cccc([C@@H](CC(=O)O)NC(=O)Nc3ccc(NC(=O)NCCN(C)CCN(C)CCN(C)CC(=O)NCC(=O)N4CCC[C@H]4C(=O)N[C@H](C(=O)O[C@]4(CC)C(=O)OCc5c4cc4n(c5=O)Cc5c-4nc4ccccc4c5CC)C(C)C)cc3)c2)c1 [Compound B2, (4S)-4,11-diethyl-3,14-dioxo-3,4,12,14-tetrahydro-1H-pyrano[3′,4′:6,7]indolizino[1,2-b]quinolin-4-yl N-{2-[{2-[{2-[({4-[({(1R)-2-carboxy-1-[3-({3-[(propylcarbamoyl)amino]benzene-1-sulfonyl}amino)phenyl]ethyl}carbamoyl)amino]phenyl}carbamoyl)amino]ethyl}(methyl)amino]ethyl}(methyl)amino]ethyl}-N-methylglycylglycyl-L-prolyl-L-valinate] | 0.1 to 1 nM | < 0.01 nM | 1.1 to 10 nM | < 0.01 nM | 1.1 to 10 nM | < 0.01 nM | 10 to 100 nM | < 0.01 nM |
| CCCNC(=O)Nc1cccc(S(=O)(=O)Nc2cccc([C@@H](CC(=O)O)NC(=O)Nc3ccc(NC(=O)NCCOCCOCCOCCC(=O)N[C@@H](CC(=O)OCCCCN(C)C)C(=O)N4CCC[C@H]4C(=O)N[C@H](C(=O)O[C@]4(CC)C(=O)OCc5c4cc4n(c5=O)Cc5c-4nc4ccccc4c5CC)C(C)C)cc3)c2)c1 [Compound C6, sodium (3R)-3-[({4-[({(10S)-10-[(2S)-2-{[(2S)-1-{[(4S)-4,11-diethyl-3,14-dioxo-3,4,12,14-tetrahydro-1H-pyrano[3′,4′:6,7]indolizino[1,2-b]quinolin-4-yl]oxy}-3-methyl-1-oxobutan-2-yl]carbamoyl}pyrrolidine-1-carbonyl]-2-methyl-8,12-dioxo-7,15,18,21-tetraoxa-2,11-diazatricosan-23-yl}carbamoyl)amino]phenyl}carbamoyl)amino]-3-[3-({3-[(propylcarbamoyl)amino]benzene-1-sulfonyl}amino)phenyl]propanoate] | 10 to 100 nM | 0.01 to 0.1 nM | 10 to 100 nM | 0.1 to 1 nM | 10 to 100 nM | 0.1 to 1 nM | 10 to 100 nM | 0.1 to 1 nM |
| CCCNC(=O)Nc1cccc(S(=O)(=O)Nc2cccc([C@@H](CC(=O)O)NC(=O)Nc3ccc(NC(=O)NCCCC[C@H](NC(=O)Nc4ccc(NC(=O)N[C@H](CC(=O)O)c5cccc(NS(=O)(=O)c6cccc(NC(=O)NCCC)c6)c5)cc4)C(=O)NCCOCCOCCOCCC(=O)N[C@@H](CC(=O)O)C(=O)N4CCC[C@H]4C(=O)N[C@H](C(=O)O[C@]4(CC)C(=O)OCc5c4cc4n(c5=O)Cc5c-4nc4ccccc4c5CC)C(C)C)cc3)c2)c1 [Compound A1, Trisodium (4S)-4,11-diethyl-3,14-dioxo-3,4,12,14-tetrahydro-1H-pyrano[3′,4′:6,7]indolizino [1,2-b]quinoline-4-yl 1-[(2S)-15-{[N^2,N^6-bis({4-[({(1R)-2-carboxylato-1-[3-({3-[(propylcarbamoyl)amino]benzene-1-sulfonyl}amino)phenyl]ethyl}carbamoyl)amino]phenyl}carbamoyl)-L-lysyl]amino}-2-(carboxylatomethyl)-4-oxo-7,10,13-trioxa-3-azapentadecanan-1-oyl]-L-prolyl-L-valinate] | 10 to 100 nM | 0.01 to 0.1 nM | 10 to 100 nM | 0.1 to 1 nM | 10 to 100 nM | 0.1 to 1 nM | > 100 nM | 0.01 to 0.1 nM |
| CCCNC(=O)Nc1cccc(S(=O)(=O)Nc2cccc([C@@H](CC(=O)O)NC(=O)Nc3ccc(NC(=O)NCCOCCOCCOCCC(=O)N[C@@H](CC(=O)OCC[N+](C)(C)C)C(=O)N4CCC[C@H]4C(=O)N[C@H](C(=O)O[C@]4(CC)C(=O)OCc5c4cc4n(c5=O)Cc5c-4nc4ccccc4c5CC)C(C)C)cc3)c2)c1 [Compound C1, trifluoroacetate] | 10 to 100 nM | 0.01 to 0.1 nM | 10 to 100 nM | 0.01 to 0.1 nM | 10 to 100 nM | 0.01 to 0.1 nM | 10 to 100 nM | 0.01 to 0.1 nM |
| CCCNC(=O)Nc1cccc(S(=O)(=O)Nc2cccc([C@@H](CC(=O)OCCCN)NC(=O)Nc3ccc(NC(=O)NCCOCCOCCOCCC(=O)N[C@@H](CC(=O)OCCCN)C(=O)N4CCC[C@H]4C(=O)N[C@H](C(=O)O[C@]4(CC)C(=O)OCc5c4cc4n(c5=O)Cc5c-4nc4ccccc4c5CC)C(C)C)cc3)c2)c1 [Compound C8] | 1.1 to 10 nM | 0.1 to 1 nM | 1.1 to 10 nM | 0.1 to 1 nM | 10 to 100 nM | 0.1 to 1 nM | > 100 nM | 0.1 to 1 nM |
